Active and inactive are the calls of the source. The calls are words filed in the database; no cut-off is given here.
Tests used:
[1] = Induction of insulin production in differentiated human HUES8 cells at 300 nM after 4 days by immunocytochemistry (reference value: 0.2+/-0.1%); format: functional
[2] = Induction of human HUES9 cell differentiation into pancreatic lineage assessed as increase in Pdx1-expression in cells pregrown with medium containing Wnt, activin, FGF10, KAAD-cyclopamine and retinoic acid after 1 day by Opera high content screening system; format: functional, cell-based; conditions: HUES9, 24 h
[3] = Induction of human HUES8 cell differentiation into pancreatic progenitor cells assessed as increase in Pdx1-expression in cells pregrown with medium containing Wnt, activin, FGF10, KAAD-cyclopamine and retinoic acid at 300 nM after 4 days by Opera high content screening system relative to control; format: functional
[4] = tested on: HUES2; assay: Induction of human HUES2 cell differentiation into pancreatic progenitor cells assessed as increase in Pdx1-expression in cells pregrown with medium containing Wnt, activin, FGF10, KAAD-cyclopamine and retinoic acid at 300 nM after 4 days by Opera high content screening system relative to control; format: functional, cell-based
[5] = organism: Homo sapiens; assay: Induction of human HUES4 cell differentiation into pancreatic progenitor cells assessed as increase in Pdx1-expression in cells pregrown with medium containing Wnt, activin, FGF10, KAAD-cyclopamine and retinoic acid at 300 nM after 4 days by Opera high content screening system relative to control; format: functional, cell-based
[6] = Induction of human HUES8 cell differentiation into pancreatic progenitor cell assessed as FOXA2 expression in cells pregrown in medium containing Wnt, activin, FGF10, KAAD-cyclopamine and retinoic acid at 300 nM after 4 days by immunocytochemistry relative to control; format: functional
[7] = Induction of human HUES8 cell differentiation into pancreatic progenitor cell assessed as HNF6 expression in cells pregrown in medium containing Wnt, activin, FGF10, KAAD-cyclopamine and retinoic acid at 300 nM after 4 days by immunocytochemistry relative to control; format: functional
[8] = tested on: HUES8; assay: Induction of human HUES8 cell differentiation into pancreatic progenitor cell assessed as increase in Pdx1 mRNA expression at 300 nM after 4 days by RT-PCR analysis cells pregrown in medium containing Wnt, activin, FGF10, KAAD-cyclopamine and retinoic acid; format: functional, cell-based
[9] = tested on: HUES8; assay: Induction of human HUES8 cell differentiation into pancreatic progenitor cell assessed as increase in PTF1A mRNA expression at 300 nM after 4 days by RT-PCR analysis cells pregrown in medium containing Wnt, activin, FGF10, KAAD-cyclopamine and retinoic acid; format: functional, cell-based
[10] = tested on: HUES8; assay: Induction of human HUES8 cell differentiation into endocrine progenitor cell assessed as increase in NKX2.2 mRNA expression at 300 nM after 4 days by RT-PCR analysis cells pregrown in medium containing Wnt, activin, FGF10, KAAD-cyclopamine and retinoic acid; format: functional, cell-based
[11] = tested on: HUES8; assay: Induction of human HUES8 cell differentiation into pancreatic progenitor cell assessed as increase in NGN3 mRNA expression at 300 nM after 4 days by RT-PCR analysis cells pregrown in medium containing Wnt, activin, FGF10, KAAD-cyclopamine and retinoic acid; format: functional, cell-based
[12] = tested on: HUES8; assay: Induction of human HUES8 cell differentiation into pancreatic progenitor cell assessed as increase in NKX6.1 mRNA expression at 300 nM after 4 days by RT-PCR analysis cells pregrown in medium containing Wnt, activin, FGF10, KAAD-cyclopamine and retinoic acid; format: functional, cell-based
[13] = organism: Homo sapiens; assay: Induction of C-peptide expression in human HUES8 insulin-producing cells at 300 nM after 4 days by immunocytochemistry relative to control; format: functional
[14] = organism: Homo sapiens; assay: Induction of Pdx1 expression in human HUES8 insulin-producing cells at 300 nM after 4 days by immunocytochemistry relative to control; format: functional
[15] = Effect on glucagon expression in human HUES8 insulin-producing cells at 300 nM after 4 days by immunocytochemistry (reference value: 75.2 +/- 9.1%); format: functional
[16] = organism: Homo sapiens; assay: Effect on human HUES8 differentiation into neuronal lineage assessed as c-peptide/betaIIItubulin double positive cells at 300 nM after 4 days by immunocytochemistry; format: functional, cell-based
[17] = organism: Homo sapiens; assay: Effect on human HUES8 differentiation into neuronal lineage assessed as c-peptide/GFAP double positive cells at 300 nM after 4 days by immunocytochemistry; format: functional
[18] = Induction of human HUES8 differentiation into pancreatic lineage assessed as increase in DBA-positive exocrine cells at 300 nM after 4 days by RT-PCR (reference value: 0.8+/-0.2%); format: functional
[19] = Induction of mouse AV3 cell differentiation into pancreatic lineage assessed as increase in Pdx-1 expression at 300 nM after 6 days by immunohistochemistry pretreated with 1000 ng/ml recombinant mouse Nodal for 5 days (reference value: 4.0+/-1.5%); format: functional
[20] = organism: Mus musculus; assay: Induction of mouse AV3 Pdx1-expressing cell differentiation assessed as increase in SOX9 expression at 300 nM after 6 days by immunohistochemistry pretreated with 1000 ng/ml recombinant mouse Nodal for 5 days; format: functional
[21] = organism: Mus musculus; assay: Induction of mouse AV3 Pdx1-expressing cell differentiation assessed as increase in Nkx6.1 expression at 300 nM after 6 days by immunohistochemistry pretreated with 1000 ng/ml recombinant mouse Nodal for 5 days; format: functional
[22] = tested on: AV3; assay: Induction of mouse AV3 cell differentiation into pancreatic lineage assessed as increase in cdcp1 mRNA expression at 300 nM after 6 days by RT-PCR analysis pretreated with 1000 ng/ml recombinant mouse Nodal for 5 days; format: functional, cell-based
[23] = organism: Homo sapiens; assay: Induction of human HUES8 differentiation into definitive endoderm assessed as expression of SOX17 at 300 nM after 3 days by immunocytochemistry; format: functional
[24] = Inhibition of PKC signaling in human HUES8 cells assessed as decrease in Pdx1-expressing cells at 1 uM after 4 days cells pregrown in medium with Wnt3a, activin A, FGF10, KAAD-cyclopamine and retinoic acid in presence of 10 uM Go 6983 by immunocytochemistry (reference value: 26.9+/-2.8%); format: cell-based
[25] = Inhibition of PKC signaling in human HUES8 cells assessed as decrease in Pdx1-expressing cells at 4 uM after 4 days by immunocytochemistry in presence of ILV pregrown in medium with Wnt3a, activin A, FGF10, KAAD-cyclopamine and retinoic acid (reference value: 26.9+/-2.8%); format: cell-based
[26] = organism: Mus musculus; assay: Induction of SOX7 expression in CD1 nude mouse extra-embryonic endoderm at 300 nM after 4 days by fluorescent confocal microscopy; format: functional, tissue-based
[27] = tested on: Intestine; assay: Induction of CES2 expression in CD1 nude mouse intestine at 300 nM after 4 days by fluorescent confocal microscopy; format: functional, tissue-based
[28] = tested on: Stomach; assay: Induction of BARX1 expression in CD1 nude mouse stomach at 300 nM after 4 days by fluorescent confocal microscopy; format: functional, tissue-based
[29] = tested on: Heart; assay: Induction of Troponin T expression in CD1 nude mouse heart at 300 nM after 4 days by fluorescent confocal microscopy; format: functional, tissue-based
[30] = organism: Mus musculus; assay: Induction of desmin expression in CD1 nude mouse mesoderm at 300 nM after 4 days by fluorescent confocal microscopy; format: functional, tissue-based
[31] = organism: Mus musculus; assay: Induction of nestin expression in CD1 nude mouse ectoderm at 300 nM after 4 days by fluorescent confocal microscopy; format: functional, tissue-based

CC(C)[C@H]1C(=O)N[C@H](CO)Cc2c[nH]c3cccc(c23)N1C [INDOLACTUM] showed an Activity [1] of 0.5%, an EC50 [2] of 142 nM and an Activity [3] of 26.9%. For the same molecule, the Activity [4] was “Active”, the Activity [5] was “Active” and the Activity [6] was 99.5%. The Activity [7] was 91.3%, the Activity [8] was “Active” and the Activity [9] was “Active”. The Activity [10] was “Active”, the Activity [11] was “Active” and the Activity [12] was “Active”. For the same molecule, the Activity [13] was “Active”, the Activity [14] was “Active” and the Activity [15] was 19.5%. For the same molecule, the Activity [16] was “inactive”, the Activity [17] was “inactive” and the Activity [18] was 3.6%. For the same molecule, the Activity [19] was 50%, the Activity [20] was “Active” and the Activity [21] was “Active”. The Activity [22] was “Active”, the Activity [23] was “inactive” and the inhibition [24] was 0.8%. The inhibition [25] was 1.2%, the Activity [26] was “inactive” and the Activity [27] was “inactive”. The Activity [28] was “inactive”, the Activity [29] was “inactive” and the Activity [30] was “inactive”. For the same molecule, the Activity [31] was “inactive”.

Source: ChEMBL document CHEMBL1221225, “A small molecule that directs differentiation of human ESCs into the pancreatic lineage” (Nat Chem Biol, 2009)
